# Measured values taken from article PMC6719172, “Inhibition of CpLIP2 Lipase Hydrolytic Activity by Four Flavonols (Galangin, Kaempferol, Quercetin, Myricetin) Compared to Orlistat and Their Binding Mechanisms Studied by Quenching of Fluorescence” (Molecules, 2019).
# Assays:
# CpLIP2 lipase [1] = target: T1, CpLIP2 lipase (Candida parapsilosis, UniProt Q8NIN8); test: Fluorescence resonance energy transfer between CpLIP2 and flavonols (Förster theory); type: binding; for R0 (Förster distance): values in Å; for r (distance between acceptor and donor): values in Å
# Excerpt: Fluorescence emission spectra of CpLIP2 lipase overlap the UV absorption spectrum of each flavonol studied, that may induce fluorescence resonance energy transfer (FRET) governed by the binding distance r between the protein behaving as energy donor and the flavonol energy acceptor. The binding distance r can be calculated via Förster theory with the following Equations (10) and (11):(10) E=1−F/ F0=R06/ R06+r^6 where E is the energy transfer efficiency, which is the photons fraction absorbed and transferred by the donor to the acceptor, F and F0 are the fluorescence intensities of donor (CpLIP2) in the presence or absence of acceptor (flavonol) at the same concentrations. The parameter r is the distance between acceptor and donor, and R0 is the Förster distance, which is the critical energy transfer distance when 50% of the excitation energy is transferred from the donor to the acceptor. […] The value of R0 ranges from 20–90 Å for biological macromolecules.
# CpLIP2 lipase [2] = target: T1, CpLIP2 lipase; test: Quenching of CpLIP2 intrinsic tryptophan fluorescence by flavonols (Stern–Volmer, Lehrer, van't Hoff analysis); type: binding; details: for KSV (Stern–Volmer quenching constant): CpLIP2 2.5 µM, pH 7.0, flavonol 2.5–25 µM (GAL 2.5–17.5 µM); for Kq (bimolecular quenching constant): Kq = KSV/τ0, τ0 1.59 ns; for KSV (accessible), Stern–Volmer quenching constant of the exposed W residues / fa (fraction of accessible W residues to the quencher): Lehrer equation; for ΔG (free energy change): ΔG = ΔH − TΔS; for Kd: Kd (dissociation constant)
# Excerpt: The fluorescence quenching spectra of CpLIP2 lipase submitted to increasing concentrations of GAL, KAE, QUE and MYR are shown in Figure 3. A remarkable quenching of the CpLIP2 fluorescence emission was observed. […] The fluorescence quenching is usually described by the linear Stern–Volmer Equations (2) and (3):(2) F0/F = 1 + Ksv [Q] = 1 + Kqτ0 [Q] (3) Kq=Ksv/τ0 where F0 and F are the intrinsic fluorescence intensities of CpLIP2 lipase (fluorophore) in absence or presence of quencher (flavonol), respectively. Kq is the bimolecular quenching constant, τ0 is the lifetime of the fluorophore in the absence of the quencher, [Q] is the concentration of the quencher, and KSV is the Stern–Volmer quenching constant.
# The mechanism of quenching, occurring between CpLIP2 lipase and flavonols, was characterized by determining the values of Kq and the thermodynamic parameters by varying the temperature. […] In both cases, the bimolecular quenching constant Kq can be calculated by the ratio between KSV and τ0, itself determined at 1.59 ns for Human Pancreatic Lipase.
# The inaccessible or buried residues are responsible for the remaining fluorescence, which is probably independent of the quencher concentration. […] An up-down curvature towards the x-axis has been shown for the four flavonols (Figure 4), indicating the presence of two populations of fluorophores, part of which would not be accessible. That means that some W residues are buried inside the lipase structure and that other residues are exposed to the solvent. Therefore, data were analyzed through the Lehrer equation, also known as the modified (or non-linear) Stern–Volmer Equation (4):(4) F0/ F0−F = 1/ fa Ksv 1/ [Q] +1/ fa
# For static quenching, the equilibrium between free and bound CpLIP2 lipase, when the ligand molecules bind independently to equivalent sites of macromolecules, can be described by the following Equation (5):(5) log10F0−F/F=nlog10[Q]+log10Ka where Ka is the binding constant and n the number of binding sites per CpLIP2 molecule.
# The results were determined for all flavonols tested at different temperatures from the plots of log10 F0 − F/F versus log10 [Q] and listed in Table 2. The plots show a linear relationship from which the slope equal to n and intercept on y-axis equal to log10 Ka. For the four flavonols, the Ka values increased when the temperatures increased. In addition, the n values were less than 1.0 in all cases and increased according to the temperature. […] Values of the dissociation constant of complexes were deduced from the Stern–Volmer Equation (6) and (7), for which Kd is expressed as the inverse of fa Ksv product. (6) F0/ F0−F= Kd 1/ [Q] +1 (7) Kd= 1/fa Ksv
# Thermodynamic parameters were calculated to determine the type of binding forces that contribute in the CpLIP2 lipase–flavonol interactions. […] Both the enthalpy (ΔH) and entropy changes (ΔS) can be estimated from the following van′t Hoff Equation (8):(8) Ln Ka = − ΔH /RT + ΔS /R
# The values of Gibbs binding free energy change (ΔG) are calculated from the following Equation (9):(9) ΔG= ΔH − TΔS
# To fill up the volume of 300 µL by well, 190 µL of sodium phosphate buffer solution (75 mM, pH 7.0) was added to each well to obtain final concentration at 50 mM. Then, 100 µL of ethanol absolute–water ultrapure (2:8, v/v) solution was added to obtain a final amount of ethanol […] in the well of 300 µL. […] The final concentration of ethanol during the experiments never exceeded 0.07% (v/v). The last step was to add 10 µL of lipase after to have optimized the final concentration of CpLIP2 equal to 2.5 µM for all our assays, giving the optimal fluorescence intensity for all measurements. The measurement of intrinsic fluorescence started after mechanical shaking for 30 s inside the multi-plate reader. […]
# T1 sequence (Q8NIN8 entry or part of it): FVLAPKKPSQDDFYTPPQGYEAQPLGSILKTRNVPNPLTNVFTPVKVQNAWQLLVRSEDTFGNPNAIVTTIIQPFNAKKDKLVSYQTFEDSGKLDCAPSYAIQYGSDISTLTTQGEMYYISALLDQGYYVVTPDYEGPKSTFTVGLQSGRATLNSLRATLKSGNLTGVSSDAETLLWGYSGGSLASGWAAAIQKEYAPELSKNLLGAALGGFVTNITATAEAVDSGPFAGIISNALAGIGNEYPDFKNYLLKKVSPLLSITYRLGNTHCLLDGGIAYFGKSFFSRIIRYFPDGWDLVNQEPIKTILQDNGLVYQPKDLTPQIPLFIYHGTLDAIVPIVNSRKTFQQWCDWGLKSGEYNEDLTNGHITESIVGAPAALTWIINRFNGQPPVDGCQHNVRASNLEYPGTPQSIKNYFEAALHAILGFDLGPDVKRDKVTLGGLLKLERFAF
compound,measurement,setting,value
"O=c1c(O)c(-c2ccccc2)oc2cc(O)cc(O)c12 [GAL, galangin]",percentage of transfer efficiency,CpLIP2 lipase [1],24%
same,E (energy transfer efficiency),"CpLIP2 lipase [1]; 2.5 µM, 308 K, pH 7.0",0.24
same,J (overlap integral),"CpLIP2 lipase [1]; 2.5 µM, 308 K, pH 7.0",0.8 × 10^14 nm^4·cm^−1·M^−1
same,R0 (Förster distance),"CpLIP2 lipase [1]; 2.5 µM, 308 K, pH 7.0",23.6 Å
same,r (distance between acceptor and donor),"CpLIP2 lipase [1]; 2.5 µM, 308 K, pH 7.0",28.5 Å
same,r/R0,"CpLIP2 lipase [1]; 2.5 µM, 308 K, pH 7.0",1.2
same,Ka (association constant),CpLIP2 lipase [2]; 298 K,323 ± 8 L/mol
same,n (number of binding sites),CpLIP2 lipase [2]; 298 K,0.58 ± 0.18
same,KSV (Stern–Volmer quenching constant),CpLIP2 lipase [2]; 298 K,2.9 ± 0.1 × 10^4 L·mol^−1
same,Kq (bimolecular quenching constant),CpLIP2 lipase [2]; 298 K,1.8e+13 M⁻¹ s⁻¹
same,"KSV (accessible), Stern–Volmer quenching constant of the exposed W residues",CpLIP2 lipase [2]; 298 K,360000 L/mol
same,fa (fraction of accessible W residues to the quencher),CpLIP2 lipase [2]; 298 K,0.37
same,ΔG (free energy change),CpLIP2 lipase [2]; 298 K,-20.2 kcal/mol
same,Ka (association constant),CpLIP2 lipase [2]; 308 K,502 ± 10 L/mol
same,n (number of binding sites),CpLIP2 lipase [2]; 308 K,0.63 ± 0.21
same,KSV (Stern–Volmer quenching constant),CpLIP2 lipase [2]; 308 K,2.4 ± 0.9 × 10^4 L·mol^−1
same,Kq (bimolecular quenching constant),CpLIP2 lipase [2]; 308 K,1.5e+13 M⁻¹ s⁻¹
same,"KSV (accessible), Stern–Volmer quenching constant of the exposed W residues",CpLIP2 lipase [2]; 308 K,360000 L/mol
same,fa (fraction of accessible W residues to the quencher),CpLIP2 lipase [2]; 308 K,0.34
same,ΔG (free energy change),CpLIP2 lipase [2]; 308 K,-20.9 kcal/mol
same,Ka (association constant),CpLIP2 lipase [2]; 318 K,616 ± 10 L/mol
same,n (number of binding sites),CpLIP2 lipase [2]; 318 K,0.66 ± 0.21
same,KSV (Stern–Volmer quenching constant),CpLIP2 lipase [2]; 318 K,2.1 ± 0.8 × 10^4 L·mol^−1
same,Kq (bimolecular quenching constant),CpLIP2 lipase [2]; 318 K,1.3e+13 M⁻¹ s⁻¹
same,"KSV (accessible), Stern–Volmer quenching constant of the exposed W residues",CpLIP2 lipase [2]; 318 K,290000 L/mol
same,fa (fraction of accessible W residues to the quencher),CpLIP2 lipase [2]; 318 K,0.33
same,ΔG (free energy change),CpLIP2 lipase [2]; 318 K,-21.6 kcal/mol
same,n (number of binding sites),CpLIP2 lipase [2]; 328 K,0.66 ± 0.04
same,KSV (Stern–Volmer quenching constant),CpLIP2 lipase [2]; 328 K,1.5 ± 0.6 × 10^4 L·mol^−1
same,Kq (bimolecular quenching constant),CpLIP2 lipase [2]; 328 K,1e+13 M⁻¹ s⁻¹
same,"KSV (accessible), Stern–Volmer quenching constant of the exposed W residues",CpLIP2 lipase [2]; 328 K,420000 L/mol
same,fa (fraction of accessible W residues to the quencher),CpLIP2 lipase [2]; 328 K,0.25
same,ΔG (free energy change),CpLIP2 lipase [2]; 328 K,-22.3 kcal/mol
same,Kd,CpLIP2 lipase [2]; 298 K,8 ± 3 µM
same,Kd,CpLIP2 lipase [2]; 308 K,8 ± 4 µM
same,Kd,CpLIP2 lipase [2]; 318 K,11 ± 6 µM
same,Kd,CpLIP2 lipase [2]; 328 K,10 ± 6 µM
same,order of magnitude of Kq,CpLIP2 lipase [2]; all temperatures of Table 1,~10^13 L mol^−1 s^−1
same,ΔS (entropy changes),"CpLIP2 lipase [2]; van't Hoff plot, 298–328 K",0.28 kJ·mol^−1·K^−1
